Earlier results in patent US12637520B2, “Conjugation chemistry for catalytic antibody 38C2” (UNIVERSITY OF FLORIDA RESEARCH FOUNDATION, INCORPORATED, priority 2019, dated 2026).

Molecular target: open conformation of integrin α4β1 (Homo sapiens, UniProt P05556+P13612)
Conditions: cited from earlier work

open conformation of integrin α4β1, sequence (P13612 34-1032): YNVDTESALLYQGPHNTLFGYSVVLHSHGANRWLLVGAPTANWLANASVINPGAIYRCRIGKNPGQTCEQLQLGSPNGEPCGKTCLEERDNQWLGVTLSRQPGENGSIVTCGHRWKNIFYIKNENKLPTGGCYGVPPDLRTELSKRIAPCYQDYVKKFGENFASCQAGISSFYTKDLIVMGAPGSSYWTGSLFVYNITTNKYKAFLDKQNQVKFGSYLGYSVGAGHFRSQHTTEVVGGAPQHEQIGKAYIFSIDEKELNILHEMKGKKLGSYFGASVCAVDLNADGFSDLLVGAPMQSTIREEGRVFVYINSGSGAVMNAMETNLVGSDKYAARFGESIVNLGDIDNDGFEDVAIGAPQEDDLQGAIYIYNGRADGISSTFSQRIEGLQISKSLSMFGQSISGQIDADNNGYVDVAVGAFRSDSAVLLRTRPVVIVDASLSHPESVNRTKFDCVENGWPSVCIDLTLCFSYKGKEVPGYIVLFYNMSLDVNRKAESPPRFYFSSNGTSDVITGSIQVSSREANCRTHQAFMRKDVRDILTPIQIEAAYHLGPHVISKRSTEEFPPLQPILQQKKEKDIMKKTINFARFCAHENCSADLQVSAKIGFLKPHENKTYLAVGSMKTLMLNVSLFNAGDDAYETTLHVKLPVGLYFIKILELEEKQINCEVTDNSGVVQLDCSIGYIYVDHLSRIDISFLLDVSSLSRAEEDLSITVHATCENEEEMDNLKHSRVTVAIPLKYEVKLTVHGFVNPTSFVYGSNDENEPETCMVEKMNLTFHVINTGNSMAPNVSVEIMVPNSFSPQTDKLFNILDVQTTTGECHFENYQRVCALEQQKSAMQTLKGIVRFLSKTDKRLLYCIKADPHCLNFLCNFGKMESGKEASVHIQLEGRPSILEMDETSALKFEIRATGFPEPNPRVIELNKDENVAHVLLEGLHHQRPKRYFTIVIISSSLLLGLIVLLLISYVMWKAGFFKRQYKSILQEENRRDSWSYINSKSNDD
open conformation of integrin α4β1, sequence (P05556 21-798): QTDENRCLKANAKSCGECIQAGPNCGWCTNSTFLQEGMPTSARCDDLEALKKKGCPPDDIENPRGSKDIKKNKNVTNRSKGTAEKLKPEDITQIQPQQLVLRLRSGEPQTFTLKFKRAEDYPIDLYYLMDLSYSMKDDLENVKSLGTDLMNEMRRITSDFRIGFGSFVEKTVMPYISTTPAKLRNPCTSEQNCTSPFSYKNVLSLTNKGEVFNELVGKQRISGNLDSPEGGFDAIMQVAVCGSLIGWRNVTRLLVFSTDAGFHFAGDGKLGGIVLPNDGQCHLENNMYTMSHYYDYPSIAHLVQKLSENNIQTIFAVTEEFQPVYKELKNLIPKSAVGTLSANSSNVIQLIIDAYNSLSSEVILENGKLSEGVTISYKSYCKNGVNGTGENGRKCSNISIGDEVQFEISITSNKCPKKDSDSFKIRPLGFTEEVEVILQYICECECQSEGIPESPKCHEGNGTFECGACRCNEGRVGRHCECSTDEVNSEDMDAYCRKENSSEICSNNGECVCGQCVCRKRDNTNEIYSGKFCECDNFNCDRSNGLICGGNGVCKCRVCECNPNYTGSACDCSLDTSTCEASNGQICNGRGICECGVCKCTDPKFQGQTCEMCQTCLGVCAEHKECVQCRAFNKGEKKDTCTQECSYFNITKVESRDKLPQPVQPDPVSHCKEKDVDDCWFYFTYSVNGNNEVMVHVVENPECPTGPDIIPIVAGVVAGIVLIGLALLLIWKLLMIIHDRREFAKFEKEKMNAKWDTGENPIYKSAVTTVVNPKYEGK

**Q.** With `Cc1ccccc1NC(=O)Nc1ccc(CC(=O)N[C@@H](CCCCNC(=O)/C=C/c2cccnc2)C(=O)N[C@@H](CCCC(=O)O)C(=O)NC2(C(N)=O)CCCCC2)cc1` [LLP2A] as the molecule, how does the “affinity for open conformation of integrin α4β1” value read?
**A.** picomolar-affinity
